Earlier results on two compounds are cited in patent US20090214462A1, “COCKCROACH JELLY BAIT” (priority 2004, published 2009).

For this series, the system named is cockroaches. To be noted: kill by intake; general statement.

Consider `CCOP(=S)(OCC)Oc1nc(Cl)c(Cl)cc1Cl` [Chlorpyrifos], for which the “Time until cockroaches die after intake” value was 2 to 3 days.
Take `OB(O)O` [Boric acid]: the “Time until cockroaches die after intake” value is on record as “one to eight”.
